Data reported in article PMC11869342, “Design and synthesis of novel HDAC6 inhibitor dimer as HDAC6 degrader for cancer treatment by palladium catalysed dimerisation” (Journal of Enzyme Inhibition and Medicinal Chemistry, 2025).
“Also recorded” adds a separate entry of the source. Like-named read-outs stand apart in the source and are kept apart here.

Experiments:
HDAC6 [1] = biological target: T1, HDAC6 (Homo sapiens, UniProt Q9UBN7); assay: HDAC enzyme activity assay (Reaction Biology), HDAC6; type: biochemical; design: Full-length recombinant hHDAC 6 was expressed in a baculovirus expression system in SF9 cells; purchased Reaction Biology Corporation (Malvern, PA); host or cells: baculovirus / SF9 insect cells; conditions: for HDAC1/6 Selectivity: ratio of HDAC1 IC50 to HDAC6 IC50; for IC50: full-length recombinant hHDAC 6, RHKKAc substrate 50 μM, 2 h at 30 °C
T1 sequence (Q9UBN7 1-1215): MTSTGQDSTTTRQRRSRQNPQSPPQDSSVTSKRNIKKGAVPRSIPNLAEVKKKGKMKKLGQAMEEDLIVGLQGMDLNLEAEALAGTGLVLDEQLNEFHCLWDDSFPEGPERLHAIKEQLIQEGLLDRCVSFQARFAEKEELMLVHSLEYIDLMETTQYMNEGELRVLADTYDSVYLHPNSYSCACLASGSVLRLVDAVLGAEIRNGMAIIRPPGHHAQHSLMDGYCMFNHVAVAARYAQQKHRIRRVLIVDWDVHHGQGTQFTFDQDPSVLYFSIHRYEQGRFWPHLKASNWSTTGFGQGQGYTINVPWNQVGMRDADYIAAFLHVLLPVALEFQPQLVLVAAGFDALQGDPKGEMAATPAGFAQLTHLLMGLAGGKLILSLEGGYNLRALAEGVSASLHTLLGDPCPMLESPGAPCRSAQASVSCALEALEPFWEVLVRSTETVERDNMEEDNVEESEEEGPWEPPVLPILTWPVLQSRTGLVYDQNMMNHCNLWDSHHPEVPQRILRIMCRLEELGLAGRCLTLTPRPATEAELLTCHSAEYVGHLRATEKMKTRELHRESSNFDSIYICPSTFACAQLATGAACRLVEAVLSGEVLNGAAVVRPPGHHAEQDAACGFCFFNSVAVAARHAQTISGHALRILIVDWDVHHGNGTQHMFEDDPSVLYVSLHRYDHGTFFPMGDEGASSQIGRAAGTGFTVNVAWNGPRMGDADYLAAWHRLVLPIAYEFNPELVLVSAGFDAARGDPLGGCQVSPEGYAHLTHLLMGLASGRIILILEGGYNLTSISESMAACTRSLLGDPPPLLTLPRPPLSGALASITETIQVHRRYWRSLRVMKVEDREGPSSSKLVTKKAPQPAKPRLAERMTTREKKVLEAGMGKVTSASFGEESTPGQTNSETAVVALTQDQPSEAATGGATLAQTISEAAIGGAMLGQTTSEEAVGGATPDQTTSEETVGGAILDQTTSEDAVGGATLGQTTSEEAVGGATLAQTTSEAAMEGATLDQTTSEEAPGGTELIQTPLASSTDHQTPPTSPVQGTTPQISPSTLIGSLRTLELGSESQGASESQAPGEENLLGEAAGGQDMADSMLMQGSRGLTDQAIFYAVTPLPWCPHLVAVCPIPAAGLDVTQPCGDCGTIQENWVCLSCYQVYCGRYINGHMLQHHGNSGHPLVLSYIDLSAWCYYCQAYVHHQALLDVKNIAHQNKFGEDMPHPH
Experimental: HDAC inhibition assays were performed by Reaction Biology Corporation (Malvern, PA). Full-length recombinant hHDAC 6 was expressed in a baculovirus expression system in SF9 cells. […] The reaction was stopped after 2 h at 30 °C . Trichostatin A was used as an internal control.

A549 cells = assay: Sulforhodamine B (SRB) assay, A549; type: cell-based; conditions: Homo sapiens, read-out: GI50 con. ± SEM A549
Experimental: (§1) The A549 and PC-3 human lung and prostate cancer cell lines were acquired from the American Type Culture Collection (Rockville, MD). […] The cultures were kept in a 37 °C incubator with 5% CO2. When the adherent cultures reached 80% confluence, they were passaged using 0.05% trypsin-EDTA. PC-3 and A549 cells were seeded into 96-well plates in RPMI medium with 5% (v/v) foetal bovine serum for 24 h. Cells in partial wells were fixed with 10% trichloroacetic acid (TCA) to represent the initial time of compound treatment. The cells were treated with or without the indicated compound for 48 h and then were fixed with 10% TCA. After the washout with ddH2O and air-dried, SRB at 0.4% (w/v) in 1% acetic acid was added for staining. Unbound SRB was washed with 1% acetic acid and SRB-bounded cells were solubilised with 10 mM Tris base. The absorbance was read at a wavelength of 515 nm for the determination of cell growth.

HDAC1 = biological target: T2, HDAC1 (Homo sapiens, UniProt Q13547); assay: HDAC enzyme activity assay (Reaction Biology), HDAC1; type: biochemical
T2 construct: purchased Reaction Biology Corporation (Malvern, PA)
T2 sequence (Q13547 whole entry): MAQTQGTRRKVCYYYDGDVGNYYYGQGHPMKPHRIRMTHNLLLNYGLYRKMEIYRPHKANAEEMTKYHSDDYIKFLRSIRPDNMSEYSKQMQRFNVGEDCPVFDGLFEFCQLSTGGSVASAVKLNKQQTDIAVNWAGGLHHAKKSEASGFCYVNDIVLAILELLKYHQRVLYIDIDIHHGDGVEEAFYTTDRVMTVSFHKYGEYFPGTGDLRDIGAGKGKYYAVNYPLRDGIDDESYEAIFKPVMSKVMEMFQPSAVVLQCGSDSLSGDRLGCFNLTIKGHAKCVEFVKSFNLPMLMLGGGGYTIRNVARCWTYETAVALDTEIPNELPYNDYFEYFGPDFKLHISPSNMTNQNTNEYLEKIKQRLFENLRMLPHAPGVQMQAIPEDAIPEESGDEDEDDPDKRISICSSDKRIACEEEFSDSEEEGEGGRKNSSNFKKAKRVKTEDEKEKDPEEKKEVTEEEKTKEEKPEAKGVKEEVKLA

PC-3 cells = assay: Sulforhodamine B (SRB) assay, PC-3; type: cell-based; conditions: Homo sapiens, read-out: GI50 con. ± SEM PC-3
Experimental: as §1

HDAC6 [2] = biological target: T1, HDAC6; assay: Western blotting of HDAC6 protein (degradation) in PC-3 cells; type: cell-based; design: endogenous in cells; host or cells: PC-3 (ATCC); conditions: 30 μM, 24 h
Experimental: (§2) Figure 3. Western blotting analysis of (a) HDAC6 protein in PC-3 cells treated with various dimer compounds at 30 μM for 24 h, (b) Ac-α-tubulin protein in PC-3 cells treated with various dimer compounds at 30 μM for 24 h, (c) LC-3 I, LC-3 II, and p62 proteins in PC-3 cells treated with various dimer compounds at 30 μM for 24 h, (d) PARP-1 and Caspase-3 proteins in PC-3 cells treated with various dimer compounds at 30 μM for 24 h, (e) p-BUBR1^S670 and p-BUBR1^T680 proteins in PC-3 cells treated with various dimer compounds at 30 μM for 24 h. Glyceraldehyde 3-phosphate dehydrogenase (GAPDH) was used as the loading control.
(§3) After compound treatment, the cells were harvested and centrifuged. […] The supernatants quantified by Bio-Rad protein assay kit (Bio-Rad Laboratories, Hercules, CA) were mixed with sample buffer (0.3 M Tris pH6.8, 10% SDS, 50% glycerol, 10% β-mercaptoethanol, and 0.02% bromophenol blue) and heated at 95 °C for 10 min. The protein (30 µg) was separated by electrophoresis in 8% or 12% SDS-PAGE, transferred to PVDF membranes, and detected with specific antibodies (1:1000 dilution for the first and 1:7000 for the second antibodies). The immunoreactive proteins were detected with an enhanced chemiluminescence detection kit (Amersham, Buckinghamshire, UK) and the images were captured by ChemiDoc™ MP System (Bio-Rad Laboratories, Hercules, CA).

LC-3 II and p62 = assay: Western blotting of autophagy proteins LC-3 II and p62 in PC-3 cells; type: cell-based, human; conditions: 30 μM, 24 h
Experimental: as §2, §3

PARP-1 and Caspase-3 = assay: Western blotting of apoptosis biomarkers PARP-1 and Caspase-3 in PC-3 cells; type: cell-based, human; conditions: 30 μM, 24 h
Experimental: as §2, §3

| Compound | HDAC1/6 Selectivity (HDAC6 [1]) | GI50 (A549 cells; A549, 48 h) [µM] | IC50 (HDAC1) [µM] | GI50 (PC-3 cells; PC-3, 48 h) [µM] | IC50 (HDAC6 [1]) [µM] | GI50 (A549 cells; A549 cells, SRB, 48 h) [µM] | GI50 (PC-3 cells; PC-3 cells, SRB, 48 h) [µM] | HDAC6 degradation (Western blot) (HDAC6 [2]) | autophagy induction (LC-3 II level, p62 expression) (LC-3 II and p62) | apoptosis induction (PARP-1 cleavage, Caspase-3 activation) (PARP-1 and Caspase-3) |
| --- | --- | --- | --- | --- | --- | --- | --- | --- | --- | --- |
| O=C(NO)c1ccc(Cn2c(=O)n(CCc3ccccc3)c(=O)c3ccccc32)cc1 [Compound 1] | 2790 | 8.8 | 11.2 | 3.5 | – | – | – | – | – | – |
| O=C(NO)c1ccc(Cn2c(=O)n(CCc3ccccc3)c(=O)c3cc(NCCOCCOCCOCCNc4ccc5c(c4)c(=O)n(CCc4ccccc4)c(=O)n5Cc4ccc(C(=O)NO)cc4)ccc32)cc1 [Compound 4a, 4-{[6-(2-{2-[2-(2-{1-[(4-Hydroxamophenyl)methyl]-2,4-dioxo-3-phenethylquinazolin-6-ylamino}ethoxy)ethoxy]ethoxy}ethylamino)-2,4-dioxo-3-phenethylquinazolin-1-yl]methyl}benzohydroxamic acid] | – | – | – | – | 0.092 | > 30 | > 30 | – | – | – |
| O=C(NO)c1ccc(Cn2c(=O)n(CCc3ccccc3)c(=O)c3cc(NCCOCCOCCNc4ccc5c(c4)c(=O)n(CCc4ccccc4)c(=O)n5Cc4ccc(C(=O)NO)cc4)ccc32)cc1 [Compound 4b, 4-[(6-{2-[2-(2-{1-[(4-Hydroxamophenyl)methyl]-2,4-dioxo-3-phenethylquinazolin-6-ylamino}ethoxy)ethoxy]ethylamino}-2,4-dioxo-3-phenethylquinazolin-1-yl)methyl]benzohydroxamic acid] | >12 | – | > 10 | – | 0.816 | > 30 | > 30 | – | – | – |
| O=C(NO)c1ccc(Cn2c(=O)n(CCc3ccccc3)c(=O)c3cc(NCCCCCNc4ccc5c(c4)c(=O)n(CCc4ccccc4)c(=O)n5Cc4ccc(C(=O)NO)cc4)ccc32)cc1 [Compound 4c, 4-{[6-(5-{1-[(4-Hydroxamophenyl)methyl]-2,4-dioxo-3-phenethylquinazolin-6-ylamino}pentylamino)-2,4-dioxo-3-phenethylquinazolin-1-yl]methyl}benzohydroxamic acid] | – | – | – | – | 0.096 | > 30 | 21.4 ± 0.3 | – | – | – |
| O=C(NO)c1ccc(Cn2c(=O)n(CCc3ccc(NCCOCCOCCNc4ccc(CCn5c(=O)c6ccccc6n(Cc6ccc(C(=O)NO)cc6)c5=O)cc4)cc3)c(=O)c3ccccc32)cc1 [Compound 6b, 4-{[3-(2-{4-[2–(2-{2-[4-(2-{1-[(4-Hydroxamophenyl)methyl]-2,4-dioxoquinazolin-3-yl}ethyl)phenylamino]ethoxy}ethoxy)ethylamino]phenyl}ethyl)-2,4-dioxoquinazolin-1-yl]methyl}benzohydroxamic acid] | 283 | – | 9.57 | – | 0.033 | 9.1 ± 1.8 | 5.5 ± 0.7 | did not degrade HDAC6 | signs of inducing autophagy | did not induce apoptosis |
| O=C(NO)c1ccc(Cn2c(=O)n(CCOCCOCCOCCn3c(=O)c4ccccc4n(Cc4ccc(C(=O)NO)cc4)c3=O)c(=O)c3ccccc32)cc1 [Compound 8a, 4-{[3-(11-{1-[(4-Hydroxamophenyl)methyl]-2,4-dioxoquinazolin-3-yl}-3,6,9-trioxaundecyl)-2,4-dioxoquinazolin-1-yl]methyl}benzohydroxamic acid] | 273 | – | 3.33 | – | 0.012 | > 30 | 14.7 ± 1.3 | degradation of HDAC6 was observed; also recorded: induced HDAC6 auto-degradation | strong autophagy induction | induce apoptosis |
| O=C(NO)c1ccc(Cn2c(=O)n(CCOCCOCCn3c(=O)c4ccccc4n(Cc4ccc(C(=O)NO)cc4)c3=O)c(=O)c3ccccc32)cc1 [Compound 8b, 4-[(3-{2-[2-(2-{1-[(4-Hydroxamophenyl)methyl]-2,4-dioxoquinazolin-3-yl}ethoxy)ethoxy]ethyl}-2,4-dioxoquinazolin-1-yl)methyl]benzohydroxamic acid] | 1386 | – | 3.19 | – | 0.002 | > 30 | > 30 | – | – | – |
| O=C(NO)c1ccc(Cn2c(=O)n(CCCCCn3c(=O)c4ccccc4n(Cc4ccc(C(=O)NO)cc4)c3=O)c(=O)c3ccccc32)cc1 [Compound 8c, 4-{[3-(5-{1-[(4-Hydroxamophenyl)methyl]-2,4-dioxoquinazolin-3-yl}pentyl)-2,4-dioxoquinazolin-1-yl]methyl}benzohydroxamic acid] | – | – | – | – | 0.027 | > 30 | > 30 | – | – | – |
| O=C(NO)c1ccc(CNc2ccccc2C(=O)NCCOCCOCCOCCNC(=O)c2ccccc2NCc2ccc(C(=O)NO)cc2)cc1 [Compound 11a] | 577 | – | 2.6 | – | 0.004 | 17.3 ± 0.2 | 5.9 ± 0.7 | – | – | – |
| O=C(NO)c1ccc(CNc2ccccc2C(=O)NCCOCCOCCNC(=O)c2ccccc2NCc2ccc(C(=O)NO)cc2)cc1 [Compound 11b] | 326 | – | 1.27 | – | 0.003 | 17.9 ± 0.4 | 11.3 ± 0.2 | – | – | – |
| O=C(NO)c1ccc(CNc2ccccc2C(=O)NCCCCCNC(=O)c2ccccc2NCc2ccc(C(=O)NO)cc2)cc1 [Compound 11c] | 95 | – | 1.46 | – | 0.015 | 6.6 ± 0.1 | 8.2 ± 0.1 | – | – | – |
